Assay results reported in a compilation of properties of binary mixtures (doi:10.1007/s10953-012-9875-7).

Test: xn = mol fraction of the nth substance listed
Details: 101 kPa

CCCC[n+]1ccc(C)cc1.N#C[S-] + O
viscosity [mPa·s]
Details | 298.15 K | 308.15 K | 318.15 K | 328.15 K | 338.15 K | 348.15 K
x1 = 0.0076 | 1.07 | 0.87 | – | 0.63 | 0.57 | 0.52
x2 = 0 | 86 | 51.75 | – | 23.5 | – | 12.86
x2 = 0.0564 | – | 46 | 30.4 | 21.3 | 15.54 | 11.74
x2 = 0.1655 | 57.6 | 36.4 | 24.6 | 17.5 | – | –
x2 = 0.278 | 43.1 | 28 | 19.3 | 13.95 | 10.49 | 8.18
x2 = 0.3797 | 31.3 | 20.9 | 14.68 | 10.87 | – | 6.62
x2 = 0.4628 | 24.8 | 16.8 | 12.14 | 9.17 | – | 5.73
x2 = 0.5669 | 17.8 | 12.47 | 9.17 | 7.02 | – | –
x2 = 0.6364 | 14.06 | – | 7.48 | 5.78 | 4.58 | 3.69
x2 = 0.7623 | 8.6 | 6.3 | 4.78 | 3.7 | – | 2.44
x2 = 0.8333 | 6.04 | 4.45 | 3.37 | 2.66 | 2.08 | 1.62
x2 = 0.9028 | 3.65 | 2.74 | 2.13 | – | 1.41 | 1.24
x2 = 0.957 | 1.98 | 1.53 | 1.23 | – | 0.86 | –
x2 = 0.9714 | – | – | – | – | – | 0.64

CCCC[n+]1ccn(C)c1.N#C[S-] + O
viscosity [mPa·s]
Details | 298.15 K | 308.15 K | 318.15 K | 328.15 K | 338.15 K | 348.15 K
x2 = 0 | 51.74 | 34.9 | 24.2 | – | 12.73 | 9.98
x2 = 0.0998 | 40.2 | 26.9 | 19.1 | – | 10.98 | 8.73
x2 = 0.2007 | – | – | – | 12.2 | 9.53 | 7.61
x2 = 0.3169 | – | 18.1 | – | 10.12 | – | 6.4
x2 = 0.4346 | 19.5 | 13.91 | 10.4 | 8.04 | 6.37 | 5.14
x2 = 0.5296 | 15.17 | 10.96 | 8.29 | 6.44 | – | –
x2 = 0.6426 | 10.8 | 7.95 | 6.05 | – | 3.76 | 3.1
x2 = 0.7201 | 8.27 | 6.14 | – | – | 2.96 | 2.48
x2 = 0.7949 | 5.95 | 4.36 | 3.33 | 2.67 | – | 1.86
x2 = 0.8733 | 3.75 | 2.84 | 2.23 | 1.82 | 1.51 | 1.28
x2 = 0.9444 | 2.02 | 1.58 | 1.27 | 1.05 | 0.9 | 0.78
